The values that follow come from patent US20240423988A1, “Improvement of Tumor Immunogenicity by Means of Splicing-Controlling Compound” (Kyoto University, priority 2021, published 2024).

A short description of series [1]: Systemic administration of a high dose to normal mice for 4 weeks (autoimmune reactions). The class given is in vivo. As for the experimental part: [FIG. 2-2] Continuation of FIG. 2. H to M: Compound 1 (100 mg/kg) or vehicle control (0.5% CMC-Na) was orally administered to 7-week-old female C57BL/6N mice twice daily for 7 continuous days (J and K) or once daily for 4 weeks (I, L, and M), while αPD-L1 antibody or isotype control (isotype IgG) was intraperitoneally injected once weekly. The experimental scheme is indicated in (H). Body weights (n=6/group) were monitored weekly (I). Mice were sacrificed on day 7 (n=5/group) to analyze peripheral blood (J) and spleen (K).
[FIG. 2-3] Continuation of FIG. 2. Land M: Mice were sacrificed on day 28 (n=3/group) to perform CD8 immunohistochemical staining (IHC). Scale bars represent 50 μm. The number of CD8+ cells was counted using ImageJ software in three areas of each tissue. All data are shown as the mean±SEM. Experiments were performed at least twice for B to G, or once for others. *** p<0.001 vs. vehicle control was determined using one-way ANOVA followed by Bonferroni's multiple comparisons test.
Next, to determine whether the enhancement of cancer immunity by co-administration of Compound 1 and αPD-L1 raises concerns regarding autoimmune reactions, a high dose of Compound 1 was systemically administered to normal mice for 4 weeks (FIG. 2-2H).

Series [2] relates to various murine cancer cell lines (LLC, Pan02, WEHI3, CT26, EG7, B16, MC38). Description: RNA-seq analysis of splice-neoantigen producing events in various murine cancer cell lines. The class given is cell-based. Particulars: LLC, Pan02, WEHI3, CT26, EG7, B16. On the procedure:
[FIG. 5-2] Continuation of FIG. 5. D and E: RT-PCR analysis for splice-neoantigen coding forms (splice-NA forms) in MC38 cells treated with 10 µM Compound 1 or vehicle control (0.1% DMSO) for 6 hours. Actb served as a loading control. * represents p<0.05, ** represents p<0.01, and *** represents p<0.001. F: Splice-neoantigen producing rates calculated from RNA-seq data (n=3 biological replicates) are indicated as the APSI (Compound 1-DMSO). All data are shown as the mean±SEM. All experiments were performed at least twice. Statistical significance was determined using unpaired Student's t-test for (B) and (E).
Then, whether the Compound 1-induced splice-neoantigens are shared across cancer type was examined using murine lung carcinoma LLC, pancreatic ductal adenocarcinoma Pan02, leukemia WEHI3, colorectal adenocarcinoma CT26, lymphoma EG7, and skin melanoma B16 cells.
The effects of Compound 2 on RNA splicing events (splicing alterations) producing the aforementioned six splice-neoantigens in various murine cancer cell lines were investigated through RNA-Seq analysis in the same manner as in FIG. 5-2F, except that Compound 1 was replaced with Compound 2 (FIG. 8).

Series [3] relates to IKBKAP gene with IVS20+6T>C mutation. The conditions noted are these: in vitro and in vivo; cited from earlier work.
The subject of a further series is MC38 cells. Nature of the series: IFN-γ signaling and expression of MHC class I components and PD-L1 in MC38 cells. It counts as cell-based, murine. Particulars: for decrease in PD-L1 expression on the cell surface / increase in H2-K^b expression: 72 hours. The text has this: MHC class I expressed in cancer cells is critical for neoantigen presentation, which is indispensable for CD8^+ T cell-dependent immune surveillance and tumor killing. To investigate whether Compound 1 modulates the neoantigen presentation pathway, first, the effects of Compound 1 on IFN-γ signaling and the expression of MHC class I components, including […] (B2M) and H2-K^b in MC38 cells, were examined because CD8^+ T cell-secreted IFN-γ is a major inducer of MHC class I components. […] In contrast, any changes in the expression of PD-L1 were not detected in host dendritic cells or macrophages. […] However, these alterations were likely not the functional mechanisms through which Compound 1 exerts its antitumor effects (FIGS. 1-2O and 1-2P), as enhanced antitumor effects of Compound 1 were observed when co-administered with αPD-L1.

As to `Clc1nc(NCc2ccco2)c2[nH]cnc2n1` [Compound 1], in series [1] (data not shown), the “leukocyte numbers and biochemical parameters in peripheral blood” value is on record as “no alterations were observed”. Moreover, in series [1] (day 7, with or without αPD-L1), the “spleen weight, leukocyte numbers, and expression of T cell activation markers in spleen and peripheral blood” value is “no effect”. For the same compound, the “histological analysis of non-malignant tissues: CD8^+ T cells, inflammatory lesions” value in series [1] (day 28, irrespective of co-treatment with αPD-L1) is given as “did not result in the accumulation of CD8^+ T cells or appearance of inflammatory lesions”. Further, the body weight changes result in series [1] (throughout 4 weeks, with or without αPD-L1) is “comparable”. Also, the “induced splice alterations shared across cancer type” value in series [2] is given as “shared in most of the examined cells”. Besides, the “aberrant splicing in the IKBKAP gene” value in series [3] was “able to improve”. Besides, the “phosphorylation of STAT1 and STAT3 and expression of B2M protein” value with MC38 cells is listed as “no such effects”. Besides, the “decrease in PD-L1 expression on the cell surface” value with MC38 cells (IFN-γ 0 ng/ml) came to 3.8%; with MC38 cells (IFN-γ 0.1 ng/ml), 3.2%; with MC38 cells (IFN-γ 1 ng/ml) it was 26.1%. The entries for the “increase in H2-K^b expression” value in the series with MC38 cells (IFN-γ 0 ng/ml) and with MC38 cells (IFN-γ 0.1 ng/ml) were 11.1% and 12.4%, respectively.
